# Data from ChEMBL document CHEMBL1145266, “Design, synthesis, and biological activity of potent and selective inhibitors of mast cell tryptase” (Bioorg Med Chem Lett, 2005).
# pIC50, pKi: −log10 of the molar value.
# Key:
# Tryptase beta-1 [1] = molecular target: T1, Tryptase beta-1 (Homo sapiens, UniProt Q15661); assay: In vitro inhibitory activity against tryptase
# [2] = Bioavailability in rat using combiPK (dose of 2 mg/kg p.o.); assay type: ADME, organism-based; conditions: in vivo, po
# [3] = Bioavailability using combiPK assay in rats at a dose of 1 mg/kg administered intravenously; assay type: ADME, organism-based; conditions: rat, in vivo, iv, read-out: Bioavailabiility
# [4] = Bioavailability in rat using combiPK (dose 1 mg/kg i.v.); assay type: ADME, organism-based; conditions: in vivo, iv
# [5] = Bioavailability in rat using combiPK assay (dose 1 mg/kg i.v.); assay type: ADME, organism-based; conditions: in vivo, iv
# [6] = Bioavailability in rat (combiPK assay) (dose 2 mg/kg p.o.); assay type: ADME, organism-based; conditions: in vivo, po
# [7] = Inhibitory concentration against Factor Xa was determined
# Tryptase beta-1 [8] = molecular target: T1, Tryptase beta-1; assay: Inhibitory concentration against alpha tryptase was determined
# Tryptase beta-1 [9] = molecular target: T1, Tryptase beta-1; assay: Inhibition concentration against beta tryptase was determined
# [10] = Inhibitory concentration against Thrombin was determined
# [11] = Inhibitory concentration against Chymase was determined
# [12] = Inhibitory concentration against Trypsin was determined
# [13] = Bioavailability using combiPK assay in rats at a dose of 2 mg/kg administered orally; assay type: ADME, organism-based; conditions: rat, in vivo, po, read-out: Bioavailabiility
# T1 sequence (Q15661 whole entry): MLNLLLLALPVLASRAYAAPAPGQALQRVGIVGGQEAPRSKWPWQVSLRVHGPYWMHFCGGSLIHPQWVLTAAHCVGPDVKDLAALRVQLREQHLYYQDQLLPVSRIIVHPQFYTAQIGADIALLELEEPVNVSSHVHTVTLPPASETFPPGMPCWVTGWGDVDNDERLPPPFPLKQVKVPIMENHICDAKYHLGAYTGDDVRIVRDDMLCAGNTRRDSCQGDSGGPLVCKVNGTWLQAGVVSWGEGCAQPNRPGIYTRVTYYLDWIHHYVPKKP
Structure (SMILES),pKi (Tryptase beta-1 [1]),also measured
Cc1ccc2c(C(=O)N3CCC(c4cccc(CN)c4)CC3)c[nH]c2c1,< 5.70,
Cc1cccc2c(C(=O)N3CCC(c4cccc(CN)c4)CC3)c[nH]c12.O=C(O)C(F)(F)F,7.21,bioavailability [2]: 19%; bioavailability [3]: 19%
NCc1cccc(C2CCN(C(=O)c3cn(-c4nccs4)c4ccccc34)CC2)c1,6.43,
NCc1cccc(C2CCN(C(=O)c3cn(S(=O)(=O)c4ccccc4)c4ccccc34)CC2)c1.O=C(O)C(F)(F)F,6.89,bioavailability [4]: 17%; bioavailability [2]: 17%
NCc1cccc(C2CCN(C(=O)c3c[nH]c4c(F)cccc34)CC2)c1,6.43,
CC(=O)n1cc(C(=O)N2CCC(c3cccc(CN)c3)CC2)c2ccccc21,6.62,
NCc1cccc(C2CCN(C(=O)c3cn(CC4CC4)c4ccccc34)CC2)c1,6.85,
CC(C)n1cc(C(=O)N2CCC(c3cccc(CN)c3)CC2)c2ccccc21,6.51,
Cn1cc(C(=O)N2CCC(c3cccc(CN)c3)CC2)c2ccccc21,6.81,
Cc1cccc2[nH]cc(C(=O)N3CCC(c4cccc(CN)c4)CC3)c12,< 5.70,
COCCn1cc(C(=O)N2CCC(c3cccc(CN)c3)CC2)c2cccc(C)c21,7.49,
NCc1cccc(C2CCN(C(=O)c3cn(CC4CCCCC4)c4ccccc34)CC2)c1,6.30,
NCc1cccc(C2CCN(C(=O)c3cn(C(=O)c4cccs4)c4ccccc34)CC2)c1,6.61,
CCCCn1cc(C(=O)N2CCC(c3cccc(CN)c3)CC2)c2ccccc21.O=C(O)C(F)(F)F,7.31,bioavailability [5]: 9.3%; bioavailability [6]: 9.3%
COCCn1cc(C(=O)N2CCC(c3cccc(CN)c3)CC2)c2ccccc21,7.24,
CCCn1cc(C(=O)N2CCC(c3cccc(CN)c3)CC2)c2ccccc21,6.73,
CCCCCCn1cc(C(=O)N2CCC(c3cccc(CN)c3)CC2)c2ccccc21,6.90,
Cc1ccc2[nH]cc(C(=O)N3CCC(c4cccc(CN)c4)CC3)c2c1,7.00,
CC(C)Cn1cc(C(=O)N2CCC(c3cccc(CN)c3)CC2)c2ccccc21,6.94,
CCCn1cc(C(=O)N2CCC(c3cccc(CN)c3)CC2)c2cccc(C)c21,7.39,
CCn1cc(C(=O)N2CCC(c3cccc(CN)c3)CC2)c2cccc(C)c21.O=C(O)C(F)(F)F,7.39,bioavailability [5]: 26%; bioavailability [6]: 26%
CCCCn1cc(C(=O)N2CCC(c3cccc(CN)c3)CC2)c2cccc(C)c21.O=C(O)C(F)(F)F,7.17,pIC50 [7]: < 5.00; bioavailability [5]: 33%; pIC50 (Tryptase beta-1 [8]): 5.43; pIC50 (Tryptase beta-1 [9]): 7.17; pIC50 [10]: < 5.00; pIC50 [11]: < 5.00; pIC50 [12]: < 5.00
CCn1cc(C(=O)N2CCC(c3cccc(CN)c3)CC2)c2ccccc21.O=C(O)C(F)(F)F,6.91,bioavailability [5]: 11%; bioavailability [6]: 11%
NCc1cccc(C2CCN(C(=O)c3cn(-c4cccnc4)c4ccccc34)CC2)c1,6.71,
CS(=O)(=O)n1cc(C(=O)N2CCC(c3cccc(CN)c3)CC2)c2ccccc21,6.79,
NCc1cccc(C2CCN(C(=O)c3c[nH]c4ccccc34)CC2)c1.O=C(O)C(F)(F)F,6.54,bioavailability [13]: 22%; bioavailability [4]: 22%
